Laboratory results: ChEMBL document CHEMBL4414647, “Austalides, Osteoclast Differentiation Inhibitors from a Marine-Derived Strain of the Fungus Penicillium rudallense” (J Nat Prod, 2019)
Calls of active or inactive are those of the source. The rule behind the calls is not given here.

Legend:
[1] = tested on: BMDM; test: Cytotoxicity against ICR mouse bone marrow macrophage assessed as reduction in cell viability at 1 to 10 uM incubated for 3 days by WST-8 assay; type: cell-based; conditions: 72 h
[2] = Inhibition of RANKL-induced osteoclast differentiation in ICR mouse bone marrow macrophage assessed as reduction in multinucleated TRAP+ cells preincubated for 3 days for RANKL stimulation followed by compound addition and measured after 1 day by TRAP staining based microscopy; type: functional; conditions: BMDM, read-out: ED50 (the source's name)
[3] = tested on: BMDM; test: Inhibition of RANKL-induced osteoclast differentiation in ICR mouse bone marrow macrophage assessed as reduction in multinucleated TRAP+ cells at 10 uM preincubated for 3 days for RANKL stimulation followed by compound addition and measured after 1 day by TRAP staining based microscopy; type: functional, cell-based
[4] = tested on: BMDM; test: Cytotoxicity against ICR mouse bone marrow macrophage assessed as reduction in cell viability at 10 uM incubated for 3 days by WST-8 assay; type: cell-based; conditions: 72 h

COc1c2c(c(C)c3c1C(=O)OC3)O[C@@]1(C)CC[C@H]3C(C)(C)[C@@H](O)CC[C@]3(C)[C@H]1C2
Activity [1]: Non-Toxic | EC50 [2]: 1900 to 2800 nM

COC(=O)CC[C@]1(C)[C@H]2Cc3c(c(C)c4c(c3OC)C(=O)OC4)O[C@@]2(C)C[C@@H](O)[C@H]1C(C)(C)O
inhibition [3]: inactive

COc1c2c(c(C)c3c1C(=O)OC3)O[C@@]1(C)CC[C@@]3(O)C(C)(C)C(=O)CC[C@]3(C)[C@H]1C2
Activity [1]: Non-Toxic | EC50 [2]: 1900 to 2800 nM

COc1c2c(c(C)c3c1C(=O)OC3)O[C@@]1(C)CC[C@H]3C(C)(C)OC(=O)CC[C@]3(C)[C@H]1C2
Activity [1]: Non-Toxic | EC50 [2]: 1900 to 2800 nM

COc1c2c(c(C)c3c1C(=O)OC3)O[C@@]1(C)CC[C@@H](C(C)(C)O)[C@](C)(CCC(=O)O)[C@H]1C2
inhibition [3]: inactive

CC(C)=CCC/C(C)=C/CC/C(C)=C/Cc1c(O)c(C)c2c(c1O)C(=O)OC2
inhibition [3]: inactive

C=C(C)[C@@H]1CC[C@]2(C)Oc3c(C)c4c(c(OC)c3C[C@@H]2[C@@]1(C)CCC(=O)OC)C(=O)OC4
inhibition [3]: inactive

COc1c2c(c(C)c3c1C(=O)OC3)O[C@@]1(C)C[C@@H](O)[C@H]3C(C)(C)C(=O)CC[C@]3(C)[C@H]1C2
Activity [1]: Non-Toxic | EC50 [2]: 1900 to 2800 nM

Cc1c2c(c(O)c3c1O[C@@]1(C)CC[C@H]4C(C)(C)C(=O)CC[C@]4(C)[C@H]1C3)C(=O)OC2
EC50 [2]: 1900 to 2800 nM | Activity [4]: Toxic

C=C(C)[C@@H]1[C@H](O)C[C@]2(C)Oc3c(C)c4c(c(OC)c3C[C@@H]2[C@@]1(C)CCC(=O)OC)C(=O)OC4
inhibition [3]: inactive

COC(=O)CC[C@]1(C)[C@H]2Cc3c(c(C)c4c(c3OC)C(=O)OC4)O[C@@]2(C)CC[C@H]1C(C)(C)O
Activity [1]: Non-Toxic | EC50 [2]: 1900 to 2800 nM

C/C(=C\Cc1c(O)c(C)c2c(c1O)C(=O)OC2)CC/C=C(\C)CCCC(C)(C)O
inhibition [3]: inactive
